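96-well plates; 48 h exposure; 5 concentrations. Endpoints by linear interpolation between flanking doses. Not reached: highest tested concentration assigned. GI50 = concentration required for 50% inhibition of growth. TGI: total growth inhibition.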
Experiments:
Experiment in all cases: NCI tumour cell line growth inhibition, 48 h
[1] = test system: COLO 205 colon
[2] = test system: UACC-62 melanoma
[3] = test system: A498 renal
[4] = test system: HCC-2998 colon
[5] = test system: PC-3 prostate
[6] = test system: T-47D breast
[7] = test system: UACC-257 melanoma
[8] = test system: SW-620 colon
[9] = test system: M19-MEL melanoma
[10] = test system: DLD-1 colon

SMILES | GI50 [1] [µM] | TGI [1] [µM] | GI50 [2] [µM] | TGI [2] [µM] | GI50 [3] [µM] | TGI [3] [µM] | GI50 [4] [µM] | TGI [4] [µM] | GI50 [5] [µM] | TGI [5] [µM] | GI50 [6] [µM] | TGI [6] [µM] | GI50 [7] [µM] | TGI [7] [µM] | GI50 [8] [µM] | TGI [8] [µM] | TGI [9] [µM] | TGI [10] [µM] | GI50 [9] [µM]
CCOc1ccc(-c2cnnn2-c2nonc2-n2cccc2)cc1 | 0.247 | 0.808 | 0.379 | > 60.3 | 0.203 | 0.924 | 0.364 | > 33 | 0.365 | > 100 | 0.466 | > 100 | 0.449 | > 69 | 0.111 | > 100 | – | – | –
CCOC(=O)c1sc2ncn(Cc3cccc(Br)c3)c(=O)c2c1C | 61.5 | > 100 | 19.5 | 92.3 | 18.2 | 80.1 | 66.8 | > 100 | 25.5 | > 100 | 36.5 | > 100 | 21.1 | 84.4 | 97.6 | > 100 | – | – | –
O=C1c2cccnc2C(=O)C2C3C=CC(C3)C12 (stereo unspecified) | – | 26.5 | – | 9.94 | – | 44.7 | – | 29.9 | – | 21.8 | – | 13.2 | – | 26.2 | – | 28.2 | – | – | –
CCOC(=O)c1c(-c2ccccc2)oc(-c2ccccc2)c1C(=O)OCC | – | > 100 | – | > 100 | – | > 100 | – | > 100 | – | – | – | – | – | > 100 | – | > 100 | > 100 | > 100 | –
CC(=O)N1c2ccccc2C2=CC3C4C(=O)N(c5ccccc5)C(=O)C4C21C1C(=O)N(c2ccccc2)C(=O)C31 (stereo unspecified) | – | > 100 | – | > 100 | – | > 100 | – | > 100 | – | – | – | – | – | > 100 | – | > 100 | – | > 100 | –
CC[O-].CC[O-].O=C([CH-]C(=O)c1cccnc1)c1ccccc1.O=C([CH-]C(=O)c1cccnc1)c1ccccc1.[Ti+4] | – | – | > 100 | > 100 | > 100 | > 100 | > 100 | > 100 | – | – | – | – | 52.2 | > 100 | 96.8 | > 100 | > 100 | – | 77.7
CCCCOc1ccc(NC(=O)n2nc(N)c3ccccc32)cc1 | 18 | 41 | 14.7 | 38.3 | 20.1 | 49.4 | 17 | 37 | 13.9 | 54.1 | 17 | > 88.2 | 24.8 | 73.5 | 19 | 37.2 | – | – | –
COc1ccc2c(c1)=C(C=C1C=CN(O)C=C1)C(=O)N=2 | 3.84 | 32.8 | 26.3 | 86.1 | 19.7 | > 73.2 | 21.8 | 47 | 29.5 | > 100 | 6.34 | > 68.7 | 44.7 | > 100 | 25.5 | > 67.8 | – | – | –
O=C(O)C1=CCCc2ccc3ccccc3c21 | – | > 100 | – | > 100 | – | > 100 | – | – | – | – | – | – | – | > 100 | – | > 100 | > 100 | – | –
O=C(CCC(=O)Nc1cccc(Cl)c1)CC(=O)c1ccc(F)cc1 | – | > 100 | – | > 100 | – | – | – | > 100 | – | – | – | – | – | > 100 | – | > 100 | – | > 100 | –
Fc1ccc(-c2nn3c(-c4ccc(F)c(Cl)c4)nnc3s2)cc1 | > 50 | > 50 | 34.8 | > 50 | > 50 | > 50 | > 50 | > 50 | 29.1 | > 50 | 34.8 | > 50 | 10.6 | 41.6 | > 50 | > 50 | – | – | –
CC(C)(O)C#Cc1ccc(/C=C/C(=O)c2ccccc2)s1 | 16.9 | 32.7 | 13.7 | 26.6 | 17.7 | 32.2 | 16.6 | 30.7 | 13.6 | 29.7 | 14.5 | 67.9 | 18.4 | 32.4 | 19.5 | 40.9 | – | – | –
Cn1c2c(c3ccccc31)CCN(CCN1CCN(c3ccccc3)CC1)C2=O | – | > 100 | – | > 100 | – | – | – | – | – | – | – | – | – | – | – | > 100 | – | > 100 | –
O=C1C2C(C(=O)[N]1[Hg][c]1cccs1)C1(Cl)C(Cl)=C(Cl)C2(Cl)C1(Cl)Cl (stereo unspecified) | 1.22 | 2.65 | 1.27 | 2.89 | 2.29 | 6.05 | 1.97 | 3.59 | 1.72 | 4.18 | 0.57 | 2.94 | 1.28 | 2.83 | 1.02 | 3.08 | – | – | –
CCN(CC)CCCn1cnc2ncccc2c1=O | – | > 100 | – | > 100 | – | – | – | – | – | – | – | – | – | – | – | > 100 | > 100 | > 100 | –
CCCc1cc(O)c2c3c(c(=O)oc2c1)CN(C)CC3 | 40.6 | > 100 | 47.2 | > 100 | 15.8 | 98.5 | 30.7 | 69.7 | > 100 | > 100 | 37.8 | > 100 | 26.1 | > 100 | > 100 | > 100 | – | – | –
C#CCN(Cc1nc2cc(C(F)(F)F)ccc2nc1-c1ccccc1)c1ccc(OC(F)(F)F)cc1 | 45.4 | > 100 | 48.6 | > 100 | 50.1 | > 100 | 30.3 | 91.9 | 44.4 | > 100 | 39.1 | > 100 | > 100 | > 100 | 40.9 | > 100 | – | – | –
Cn1cc(C2=C(c3cn(CCO)c4ccccc34)C(=O)NC2=O)c2ccccc21 | 1.25 | 5.89 | 2.58 | 7.99 | 1.45 | 7.78 | 5.56 | > 23.6 | 4.59 | > 25 | 3.96 | 13.1 | 4.75 | 22.6 | 1.21 | > 25 | – | – | –
